According to patent publication US6166091A, “2,3,4-trihydroxycyclopentanone” (Takara Shuzo Co., Ltd., priority 1997, dated 2000):

What was measured:
mice = test: toxicity by oral administration to mice; assay type: in vivo; conditions: oral administration of 100 mg/kg to mice
[1] = standing in aqueous solution, TLC detection of cyclopentenone formed; assay type: physicochemical; conditions: 4 mM in water, 16 hours at 4° C., 37° C. or 45° C.
Protocol: Hydroxycyclopentanone obtained in Example 2-(2) was dissolved in water to make the concentration 4 mM followed by allowing to stand for 16 hours at 4° C., 37° C. or 45° C. One μl of each of the samples was spotted on a silica gel 60 sheet F254 (manufactured by Merck), developed by the upper layer of a mixture of butyl acetate, acetic acid and water (3:2:2) and detected by means of an orcinol-sulfuric acid method. Thus, 400 mg of orcinol monohydrate (manufactured by Nacalai Tesque; 257-30) was dissolved in 22.8 ml of sulfuric acid, water was added to make 200 ml, the solution was sprayed on the thin layer after the development and heated at 120° C. for 1-2 minutes and the resulting spots were observed.

[2] = storage of aqueous cyclopentenone solution, conversion to hydroxycyclopentanone; assay type: physicochemical; conditions: water; aqueous solution stored at 4° C. for 30 days; read-out: cyclopentenone changed to hydroxycyclopentanone in aqueous solution

| degraded at 720 h [2] [%] | SMILES | toxicity (mice) | conversion to cyclopentenone in aqueous solution (TLC spot) [1] |
| --- | --- | --- | --- |
|  | O=C1CC(O)C(O)C1O (stereo not drawn) [hydroxycyclopentanone, 2,3,4-trihydroxycyclopentanone] | no toxicity was noted | a spot for cyclopentenone was noted in all of the samples and the higher the temperature for allowing to stand, the stronger the color of the spot for cyclopentenone |
| ~30 | O=C1C=CC(O)C1O (stereo not drawn) [cyclopentenone, 4,5-dihydroxy-2-cyclopenten-1-one] |  |  |
